In the supplement of paper PMC10307832:

What was measured:
Test in all cases: relative viability (nuclei count vs DMSO), 5 days (fraction); higher = more cells survive
BGJ398 + OSI-027 = compound: CCN1CCN(c2ccc(Nc3cc(N(C)C(=O)Nc4c(Cl)c(OC)cc(OC)c4Cl)ncn3)cc2)CC1 [BGJ398] + COc1cccc2cc(-c3nc([C@H]4CC[C@H](C(=O)O)CC4)n4ncnc(N)c34)[nH]c12 [OSI-027] (partner 0.5 µM)
Procedure, shortened: (§1)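 Each reported value is a median over duplicate plates. It expresses relative viability: treated-well nuclei count divided by vehicle-well nuclei count. Lung cancer cell lines in 1536-well plates were dosed by pin tool a day after seeding, alone with one drug or with a fixed anchor-drug dose plus five library-drug doses (not always all listed) in √10 steps, and nuclei were counted after 5 days.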

BGJ398 + Luminespib = compound: CCN1CCN(c2ccc(Nc3cc(N(C)C(=O)Nc4c(Cl)c(OC)cc(OC)c4Cl)ncn3)cc2)CC1 [BGJ398] + CCNC(=O)c1noc(-c2cc(C(C)C)c(O)cc2O)c1-c1ccc(CN2CCOCC2)cc1 [Luminespib] (partner 0.01 µM)
Procedure, shortened: as §1

[1] = compound: C1=CC2=NC=CN=C2C=C1/C=C/3\C(=O)NC(=O)S3 + N=C(N)NC(=N)NCCc1ccccc1 [Phenformin] (partner 250 µM)
Procedure, shortened: as §1

BGJ398 + Palbociclib = compound: CCN1CCN(c2ccc(Nc3cc(N(C)C(=O)Nc4c(Cl)c(OC)cc(OC)c4Cl)ncn3)cc2)CC1 [BGJ398] + CC(=O)c1c(C)c2cnc(Nc3ccc(N4CCNCC4)cn3)nc2n(C2CCCC2)c1=O [Palbociclib] (partner 0.5 µM)
Procedure, shortened: as §1

Question: What does the source list for UMC-11?
Answer: relative viability (BGJ398 + OSI-027; first compound 0.01 µM): 0.494; relative viability (BGJ398 + OSI-027; first compound 0.03162 µM): 0.449; relative viability (BGJ398 + OSI-027; first compound 0.1 µM): 0.53; relative viability (BGJ398 + OSI-027; first compound 0.3162 µM): 0.411; relative viability (BGJ398 + OSI-027; first compound 1 µM): 0.429; relative viability (BGJ398 + Luminespib; first compound 0.01 µM): 1.02; relative viability (BGJ398 + Luminespib; first compound 0.03162 µM): 1.08; relative viability (BGJ398 + Luminespib; first compound 0.1 µM): 0.994; relative viability (BGJ398 + Luminespib; first compound 0.3162 µM): 0.984; relative viability (BGJ398 + Luminespib; first compound 1 µM): 1.01; relative viability ([1]; first compound 0.02 µM): 0.329; relative viability ([1]; first compound 0.06325 µM): 0.335; relative viability ([1]; first compound 0.2 µM): 0.373; relative viability ([1]; first compound 0.6325 µM): 0.338; relative viability ([1]; first compound 2 µM): 0.331; relative viability (BGJ398 + Palbociclib; first compound 0.01 µM): 0.327; relative viability (BGJ398 + Palbociclib; first compound 0.03162 µM): 0.276; relative viability (BGJ398 + Palbociclib; first compound 0.1 µM): 0.36; relative viability (BGJ398 + Palbociclib; first compound 0.3162 µM): 0.374; relative viability (BGJ398 + Palbociclib; first compound 1 µM): 0.351
